Assay results from US8440672B2, “Diphenyl substituted alkanes” (Merck Sharp & Dohme Corp., priority 2006, dated 2013).

molecular target: T1, FLAP (Homo sapiens, UniProt P20292); experiment: FLAP Binding Assay; settings: competition with radiolabelled Compound A; 100,000×g pellet membranes from human leukocyte; 20 minute incubation at room temperature
T1 construct: A 100,000×g pellet from human leukocyte 10,000×g supernatants (1) is the source of FLAP; from tissue; host or cells: human leukocytes (100,000 x g membrane pellet)
T1 sequence (P20292 1-161): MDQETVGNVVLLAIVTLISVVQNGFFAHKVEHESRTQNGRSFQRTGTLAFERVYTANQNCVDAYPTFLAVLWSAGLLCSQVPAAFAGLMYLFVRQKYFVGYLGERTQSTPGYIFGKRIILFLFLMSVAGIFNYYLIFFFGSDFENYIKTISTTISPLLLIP
Protocol: A 100,000×g pellet from human leukocyte 10,000×g supernatants (1) is the source of FLAP. The 100,000×g pellet membranes were resuspended in Tris-Tween assay buffer (100 mM Tris HCl pH 7.4, 140 mM NaCl, 2 mM EDTA, 0.5 mM dithiothreitol, 5% glycerol, 0.05% Tween 20) to yield a final protein concentration of 50 μg to 150 μg/ml. Aliquots (100 μl) of membrane suspension were added to 12 mm×75 mm polypropylene tubes containing 100 μl Tris-Tween assay buffer, 30,000 cpm of Compound A in 5 μl MeOH:assay buffer (1:1), and 2 μl dimethyl sulfoxide or competitor (i.e., the compound to be tested) in dimethyl sulfoxide. Compound B (10 μM final concentration) was used to determine non-specific binding. After a 20 minute incubation at room temperature, tube contents were diluted to 4 ml with cold 0.1 M Tris HCl pH 7.4, 0.05% Tween 20 wash buffer and the membranes were collected by filtration of GFB filters presoaked in the wash buffer. Tubes and filters were rinsed with 2×4 ml aliquots of cold wash buffer. Filters were transferred to 12 mm×3.5 mm polystyrene tubes for determination of radioactivity by gamma-scintillation counting.
Specific binding is defined as total binding minus non-specific binding. Total binding was Compound A bound to membranes in the absence of competitor; non-specific binding was Compound A bound in the presence of 10 uM Compound B. Preparation of Compound A is described in reference 1, below. The IC50 values were obtained by computer analysis (see reference 2, below) of the experimental data.

Q: For `COc1cncc(-c2ccc(C(C)(c3ccc(-c4ccc(C(C)(C)O)nn4)cn3)C(C)C)cc2)c1` (stereo not shown) [Example 4d, 2-[6-(6-{1-[4-(5-methoxypyridin-3-yl)phenyl]-1,2-dimethylpropyl}pyridin-3-yl)pyridazin-3-yl]propan-2-ol], which IC50 is on record?
A: 1.1 nM

Q: How did the IC50 turn out when `CC(C)C(C)(c1ccc(-c2ccc(N)nn2)cc1)c1ccc(C(C)(C)O)cn1` (stereo not shown) [Example 7Bd, 2-(6-(1-[4-(6-aminopyridazin-3-yl)phenyl]-1,2-dimethylpropyl)pyridin-3-yl)propan-2-ol] was run?
A: 2.3 nM

Q: With `CC(C)C(C)(c1ccc(OCc2ccccn2)cc1)c1ccc(-c2ccc(C(C)(C)O)nn2)cn1` (stereo not shown) [Example 10Aj, 2-[6-(6-{1,2-dimethyl-1-[4-(pyridin-2-ylmethoxy)phenyl]propyl}pyridin-3-yl)pyridazin-3-yl]propan-2-ol] as the compound, how does the IC50 read?
A: 0.7 nM

Q: With `COc1cncc(-c2ccc(C(C)(c3ccc(-c4noc(C(C)(C)O)n4)cn3)C(C)C)cc2)c1` (stereo not shown) [Example 1Ac, 2-[3-(6-{1-[4-(5-methoxypyridin-3-yl)phenyl]-1,2-dimethylpropyl}pyridin-3-yl)-1,2,4-oxadiazol-5-yl]propan-2-ol] as the compound, how does the IC50 read?
A: 2.1 nM

Q: With `COc1cncc(-c2ccc(C(C)(c3ccc(-c4ccc(S(C)(=O)=O)nn4)cn3)C(C)C)cc2)c1` (stereo not shown) [Example 5a, 3-(6-{1-[4-(5-methoxypyridin-3-yl)phenyl]-1,2-dimethylpropyl}pyridin-3-yl)-6-(methylsulfonyl)pyridazine] as the compound, how does the IC50 read?
A: 0.7 nM

Q: `CC(C)C(C)(c1ccc(-c2ccc(N)nn2)cc1)c1ccc(-c2ccc(C(C)(C)O)nn2)cn1` (stereo not shown) [Example 4g, 2-[6-(6-{1-[4-(6-aminopyridazin-3-yl)phenyl]-1,2-dimethylpropyl}pyridin-3-yl)pyridazin-3-yl]propan-2-ol] was tested. Which IC50 did it give?
A: 0.6 nM

Q: `CC(C)C(C)(c1ccc(-c2cncc(OCc3ccccc3)c2)cc1)c1ccc(-c2ccc(C(F)(F)F)nn2)cn1` (stereo not shown) [Example 6Da, 3-[6-(1-{4-[5-(benzyloxy)pyridin-3-yl]phenyl}-1,2-dimethylpropyl)pyridin-3-yl]-6-(trifluoromethyl)pyridazine] was tested. Which IC50 did it give?
A: 2.4 nM

Q: With `CC(C)C(C)(c1ccc(-c2cncc(OCF)c2)cc1)c1ccc(-c2ccc(C(F)(F)F)nn2)cn1` (stereo not shown) [Example 6c, 3-[6-(1-{4-[5-(fluoromethoxy)pyridin-3-yl]phenyl}-1,2-dimethylpropyl)pyridin-3-yl]-6-(trifluoromethyl)pyridazine] as the compound, how does the IC50 read?
A: 2.8 nM

Q: `CC(C)C(C)(c1ccc(-c2cnc(N)nc2)cc1)c1ccc(-c2ccc(C(C)(C)O)nn2)cn1` (stereo not shown) [Example 4f, 2-[6-(6-{1-[4-(2-aminopyrimidin-5-yl)phenyl]-1,2-dimethylpropyl}pyridin-3-yl)pyridazin-3-yl]propan-2-ol] was tested. Which IC50 did it give?
A: 0.5 nM

Q: How did the IC50 turn out when `CC(C)C(C)(c1ccc(-c2cnc(N)nc2)cc1)c1ccc(C(C)(C)O)cn1` (stereo not shown) [Example 7Ad, 2-(6-{1-[4-(2-aminopyrimidin-5-yl)phenyl]-1,2-dimethylpropyl}pyridin-3-yl)propan-2-ol] was run?
A: 1.2 nM

Q: How did the IC50 turn out when `COC(=O)c1ccc(-c2ccc(C(C)(c3ccc(OCc4ccccn4)cc3)C(C)C)nc2)nn1` (stereo not shown) [Example 10Ah, methyl 6-(6-{1,2-dimethyl-1-[4-(pyridin-2-ylmethoxy)phenyl]propyl}pyridin-3-yl)pyridazine-3-carboxylate] was run?
A: 0.7 nM

Q: With `Cn1nnc(-c2ccc(C(c3ccc(OCc4ccccn4)cc3)C(C)(C)C)nc2)n1` (stereo not shown) [Example 9b, 2-{2,2-dimethyl-1-[4-(pyridin-2-ylmethoxy)phenyl]propyl}-5-(2-methyl-2H-tetrazol-5-yl)pyridine] as the compound, how does the IC50 read?
A: 14 nM

Q: With `CC(C)(C)C(c1ccc(OCc2ccccn2)cc1)c1ccc(-c2nnc(N)o2)cn1` (stereo not shown) [Example 8a, 5-(6-{2,2-dimethyl-1-[4-(pyridin-2-ylmethoxy)phenyl]pronyl}pyridin-3-yl)-1,3,4-oxadiazol-2-amine] as the compound, how does the IC50 read?
A: 5.8 nM

Q: `CC(C)C(C)(c1ccc(OCc2nccs2)cc1)c1ccc(-c2noc(C(C)(C)O)n2)cn1` (stereo not shown) [Example 10Ca, 2-[3-(6-{1,2-dimethyl-1-[4-(1,3-thiazol-2-ylmethoxy)phenyl]propyl}pyridin-3-yl)-1,2,4-oxadiazol-5-yl]propan-2-ol] was tested. Which IC50 did it give?
A: 2.9 nM

Q: How did the IC50 turn out when `COc1cncc(-c2ccc(C(C)(c3ccc(-c4ccc(C(F)(F)F)nn4)cn3)C(C)C)cc2)c1` (stereo not shown) [Example 4Ad, 3-(6-{1-[4-(5-methoxypyridin-3-yl)phenyl]-1,2-dimethylpropyl}pyridin-3-yl)-6-(trifluoromethyl)pyridazine] was run?
A: 1.4 nM

Q: For `COc1cncc(-c2ccc(C(C)(c3ccc(-c4noc(C5(N)CC5)n4)cn3)C(C)C)cc2)c1` (stereo not shown) [Example 2b], which IC50 is on record?
A: 3.6 nM
